# According to article PMC6917776, “Discovery of a chemical probe for PRDM9” (Nature Communications, 2019):
# “And” between values parts separate entries of the source, which are not always exact repeats. Equal entries are not always repeated.
# What was measured:
# PRDM8 = PRDM8 (Homo sapiens, UniProt Q9NQV8); assay: DSF thermal stabilisation, PRDM selectivity; type: binding; details: 250 µM MRK-740; 2 mM SAM
# Method: (§1) DSF measurements were performed as previously described[21] using a Light Cycler 480 II instrument from Roche Applied Science. All proteins tested in these selectivity experiments were used at final concentration of 0.02 mg mL^−1 in a 0.1 M HEPES, pH 7.5 and 150 mM NaCl buffer in the presence of 2 mM SAM. Sypro Orange was purchased from Invitrogen as a 5000 × stock solution (concentration not specified by vendor) and was diluted 1:1000 to yield a 5 × working concentration. The temperature scan curves were fitted to a Boltzmann sigmoid function, and the Tm values were obtained from the midpoint of the transition.
# PRDM11 = PRDM11 (Homo sapiens, UniProt Q9NQV5); assay: DSF thermal stabilisation, PRDM selectivity; type: binding; details: 250 µM MRK-740; 2 mM SAM
# Chain of PRDM11 (Q9NQV5 whole entry): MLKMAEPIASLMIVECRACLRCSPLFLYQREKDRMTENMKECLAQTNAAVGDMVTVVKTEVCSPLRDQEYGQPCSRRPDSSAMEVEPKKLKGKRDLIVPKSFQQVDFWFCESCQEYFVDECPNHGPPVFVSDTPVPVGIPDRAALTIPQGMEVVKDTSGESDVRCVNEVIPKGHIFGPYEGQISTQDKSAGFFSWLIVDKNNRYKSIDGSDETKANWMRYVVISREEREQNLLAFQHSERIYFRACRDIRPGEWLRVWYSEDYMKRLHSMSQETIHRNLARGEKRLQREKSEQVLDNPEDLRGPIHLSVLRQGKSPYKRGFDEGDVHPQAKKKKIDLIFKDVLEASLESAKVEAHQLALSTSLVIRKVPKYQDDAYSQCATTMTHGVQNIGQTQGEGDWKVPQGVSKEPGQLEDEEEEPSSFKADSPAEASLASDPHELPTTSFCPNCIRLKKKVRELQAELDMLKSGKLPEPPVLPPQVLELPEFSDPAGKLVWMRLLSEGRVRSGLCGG
# Method: as §1
# PRDM13 = PRDM13 (Homo sapiens, UniProt Q9H4Q3); assay: DSF thermal stabilisation, PRDM selectivity; type: binding; details: 250 µM MRK-740; 2 mM SAM
# Chain of PRDM13 (Q9H4Q3 whole entry): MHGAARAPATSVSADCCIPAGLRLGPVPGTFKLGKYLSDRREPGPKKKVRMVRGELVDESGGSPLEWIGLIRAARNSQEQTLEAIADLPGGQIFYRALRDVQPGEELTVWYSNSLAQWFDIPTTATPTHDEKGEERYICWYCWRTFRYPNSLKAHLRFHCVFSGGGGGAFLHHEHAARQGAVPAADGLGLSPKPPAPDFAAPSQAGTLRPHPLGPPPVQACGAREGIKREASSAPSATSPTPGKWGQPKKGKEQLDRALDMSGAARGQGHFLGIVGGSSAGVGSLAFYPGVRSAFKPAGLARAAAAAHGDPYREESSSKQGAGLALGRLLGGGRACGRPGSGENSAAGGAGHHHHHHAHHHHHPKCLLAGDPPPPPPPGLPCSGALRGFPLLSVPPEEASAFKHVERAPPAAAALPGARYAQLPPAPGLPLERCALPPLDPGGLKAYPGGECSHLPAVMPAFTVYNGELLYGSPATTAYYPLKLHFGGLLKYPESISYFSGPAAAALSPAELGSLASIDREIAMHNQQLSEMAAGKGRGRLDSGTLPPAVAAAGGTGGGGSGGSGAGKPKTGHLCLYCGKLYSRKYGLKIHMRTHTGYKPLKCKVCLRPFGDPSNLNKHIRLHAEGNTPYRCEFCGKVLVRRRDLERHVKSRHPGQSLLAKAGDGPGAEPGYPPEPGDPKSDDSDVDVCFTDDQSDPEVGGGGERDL
# Method: as §1
# PRDM10 = PRDM10 (Homo sapiens, UniProt Q9NQV6); assay: DSF thermal stabilisation, PRDM selectivity; type: binding; details: 250 µM MRK-740; 2 mM SAM
# Chain of PRDM10 (Q9NQV6 whole entry): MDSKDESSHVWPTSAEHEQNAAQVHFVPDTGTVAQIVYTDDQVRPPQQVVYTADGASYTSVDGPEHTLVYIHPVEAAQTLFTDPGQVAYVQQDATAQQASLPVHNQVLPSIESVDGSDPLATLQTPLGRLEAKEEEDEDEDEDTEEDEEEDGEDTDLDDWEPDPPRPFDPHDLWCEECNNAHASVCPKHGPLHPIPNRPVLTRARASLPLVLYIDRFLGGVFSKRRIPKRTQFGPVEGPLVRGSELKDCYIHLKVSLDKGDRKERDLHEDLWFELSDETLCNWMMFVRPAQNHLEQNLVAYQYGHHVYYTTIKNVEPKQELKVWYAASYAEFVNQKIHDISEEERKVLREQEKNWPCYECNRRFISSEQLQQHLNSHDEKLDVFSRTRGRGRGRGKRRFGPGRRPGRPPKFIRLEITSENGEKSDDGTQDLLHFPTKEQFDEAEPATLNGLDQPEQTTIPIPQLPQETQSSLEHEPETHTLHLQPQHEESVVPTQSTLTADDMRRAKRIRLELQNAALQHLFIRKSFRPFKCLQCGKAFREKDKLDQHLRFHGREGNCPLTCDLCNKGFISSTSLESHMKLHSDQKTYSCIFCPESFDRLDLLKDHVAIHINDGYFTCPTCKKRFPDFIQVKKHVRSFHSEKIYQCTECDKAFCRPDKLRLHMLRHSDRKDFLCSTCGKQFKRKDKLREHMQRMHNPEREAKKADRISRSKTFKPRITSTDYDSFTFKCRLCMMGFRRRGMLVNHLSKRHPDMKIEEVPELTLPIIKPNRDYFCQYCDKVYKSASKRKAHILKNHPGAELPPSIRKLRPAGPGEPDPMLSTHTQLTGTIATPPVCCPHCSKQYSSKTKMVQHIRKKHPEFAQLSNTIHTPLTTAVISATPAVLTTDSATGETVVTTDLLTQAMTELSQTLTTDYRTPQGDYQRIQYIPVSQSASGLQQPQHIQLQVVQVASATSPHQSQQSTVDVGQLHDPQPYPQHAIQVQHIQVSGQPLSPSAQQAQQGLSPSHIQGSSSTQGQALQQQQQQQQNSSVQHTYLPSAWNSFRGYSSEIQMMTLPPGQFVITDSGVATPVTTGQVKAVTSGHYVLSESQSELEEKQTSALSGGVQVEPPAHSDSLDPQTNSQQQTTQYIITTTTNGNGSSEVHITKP
# Method: as §1
# PRDM2 = PRDM2 (Homo sapiens, UniProt Q13029); assay: DSF thermal stabilisation, PRDM selectivity; type: binding; details: 250 µM MRK-740; 2 mM SAM
# Method: as §1
# PRDM6 = PRDM6 (Homo sapiens, UniProt Q9NQX0); assay: DSF thermal stabilisation, PRDM selectivity; type: binding; details: 250 µM MRK-740; 2 mM SAM
# Chain of PRDM6 (Q9NQX0 whole entry): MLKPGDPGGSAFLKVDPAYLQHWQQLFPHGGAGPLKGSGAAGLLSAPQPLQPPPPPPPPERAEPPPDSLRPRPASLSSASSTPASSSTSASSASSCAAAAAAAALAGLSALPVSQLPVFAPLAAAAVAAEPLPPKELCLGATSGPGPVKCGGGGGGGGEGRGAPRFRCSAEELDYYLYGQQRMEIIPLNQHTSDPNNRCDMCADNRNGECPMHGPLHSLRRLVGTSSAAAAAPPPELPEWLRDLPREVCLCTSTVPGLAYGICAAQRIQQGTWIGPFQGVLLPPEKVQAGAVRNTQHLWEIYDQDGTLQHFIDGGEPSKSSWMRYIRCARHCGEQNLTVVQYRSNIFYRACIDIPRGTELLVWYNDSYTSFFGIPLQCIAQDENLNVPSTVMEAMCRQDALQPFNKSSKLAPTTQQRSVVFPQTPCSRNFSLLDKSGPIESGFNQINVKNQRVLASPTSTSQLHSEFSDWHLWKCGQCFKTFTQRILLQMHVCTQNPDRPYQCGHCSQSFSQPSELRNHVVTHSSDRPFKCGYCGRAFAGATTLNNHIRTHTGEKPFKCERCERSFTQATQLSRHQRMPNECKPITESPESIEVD
# Method: as §1
# PRDM12 = PRDM12 (Homo sapiens, UniProt Q9H4Q4); assay: DSF thermal stabilisation, PRDM selectivity; type: binding; details: 250 µM MRK-740; 2 mM SAM
# Method: as §1
# PRDM14 = PRDM14 (Homo sapiens, UniProt Q9GZV8); assay: DSF thermal stabilisation, PRDM selectivity; type: binding; details: 250 µM MRK-740; 2 mM SAM
# Method: as §1
# [1] = test system: panel of 108 enzymes and receptors; assay: Eurofins Panlabs customized panel profiling; type: binding
# Histamine H3 = target: T1, Histamine H3 (Homo sapiens, UniProt Q9Y5N1); assay: Eurofins Panlabs panel, radioligand binding; details: at 10 µM
# T1 construct: NIMH Psychoactive Drug Screening Program, University of North Carolina at Chapel Hill
# T1 sequence (Q9Y5N1 whole entry): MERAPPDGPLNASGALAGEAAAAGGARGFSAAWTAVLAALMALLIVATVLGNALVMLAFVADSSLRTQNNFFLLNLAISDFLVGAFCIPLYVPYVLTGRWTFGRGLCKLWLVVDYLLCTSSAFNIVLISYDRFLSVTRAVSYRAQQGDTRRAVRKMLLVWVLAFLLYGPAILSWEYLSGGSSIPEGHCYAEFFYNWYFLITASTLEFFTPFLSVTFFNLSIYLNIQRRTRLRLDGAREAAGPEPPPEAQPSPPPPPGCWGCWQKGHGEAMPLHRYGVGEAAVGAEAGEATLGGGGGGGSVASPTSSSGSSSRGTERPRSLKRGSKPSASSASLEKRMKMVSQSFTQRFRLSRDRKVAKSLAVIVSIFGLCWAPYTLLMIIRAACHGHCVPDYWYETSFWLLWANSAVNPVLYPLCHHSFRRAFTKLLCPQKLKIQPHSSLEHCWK
# PRDM9 = PRDM9 (Homo sapiens, UniProt Q9NQV7); assay: DSF thermal stabilisation, PRDM selectivity and titration; type: binding
# Chain of PRDM9 (Q9NQV7 whole entry): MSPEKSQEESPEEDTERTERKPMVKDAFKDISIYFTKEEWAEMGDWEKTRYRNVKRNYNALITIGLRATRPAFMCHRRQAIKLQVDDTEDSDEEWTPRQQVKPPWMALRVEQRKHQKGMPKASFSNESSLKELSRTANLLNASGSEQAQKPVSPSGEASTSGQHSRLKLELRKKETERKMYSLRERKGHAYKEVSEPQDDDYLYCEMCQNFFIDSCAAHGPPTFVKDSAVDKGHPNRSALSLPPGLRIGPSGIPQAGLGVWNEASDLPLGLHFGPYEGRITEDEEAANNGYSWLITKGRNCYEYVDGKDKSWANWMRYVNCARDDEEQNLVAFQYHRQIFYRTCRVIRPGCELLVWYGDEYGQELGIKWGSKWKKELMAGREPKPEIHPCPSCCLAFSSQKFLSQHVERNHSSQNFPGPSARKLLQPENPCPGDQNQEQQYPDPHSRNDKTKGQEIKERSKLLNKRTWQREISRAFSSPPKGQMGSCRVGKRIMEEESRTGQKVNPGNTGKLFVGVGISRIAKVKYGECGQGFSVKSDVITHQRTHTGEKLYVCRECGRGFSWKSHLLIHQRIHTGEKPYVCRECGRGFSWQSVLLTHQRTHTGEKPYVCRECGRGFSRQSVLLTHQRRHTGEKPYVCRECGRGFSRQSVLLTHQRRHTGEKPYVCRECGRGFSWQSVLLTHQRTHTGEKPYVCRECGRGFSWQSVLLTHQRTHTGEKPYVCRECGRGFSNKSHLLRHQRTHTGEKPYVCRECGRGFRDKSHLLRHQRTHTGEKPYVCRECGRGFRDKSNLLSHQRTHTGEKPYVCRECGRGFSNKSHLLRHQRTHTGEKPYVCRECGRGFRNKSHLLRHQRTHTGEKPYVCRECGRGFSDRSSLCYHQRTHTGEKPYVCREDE
# Method: as §1, with “All proteins tested in these selectivity experiments were used at final concentration of 0.02 mg mL^−1 in a 0.1 M HEPES, pH 7.5 and 150 mM NaCl buffer in the presence of 2 mM SAM.” left out
# [2] = MRK-740 0.244141 uM, in the absence of SAM
# [3] = MRK-740 0.244141 uM, in the presence of 2 mM of SAM
# [4] = MRK-740 0.488281 uM, in the absence of SAM
# [5] = MRK-740 0.488281 uM, in the presence of 2 mM of SAM
# [6] = MRK-740 0.976563 uM, in the absence of SAM
# [7] = MRK-740 0.976563 uM, in the presence of 2 mM of SAM
# [8] = MRK-740 1.95312 uM, in the absence of SAM
# [9] = MRK-740 1.95312 uM, in the presence of 2 mM of SAM
# [10] = MRK-740 3.90625 uM, in the absence of SAM
# [11] = MRK-740 3.90625 uM, in the presence of 2 mM of SAM
# [12] = MRK-740 7.8125 uM, in the absence of SAM
# [13] = MRK-740 7.8125 uM, in the presence of 2 mM of SAM
# [14] = MRK-740 15.625 uM, in the absence of SAM
# [15] = MRK-740 15.625 uM, in the presence of 2 mM of SAM
# [16] = MRK-740 31.25 uM, in the absence of SAM
# [17] = MRK-740 31.25 uM, in the presence of 2 mM of SAM
# Chain of PRDM8 (Q9NQV8 whole entry): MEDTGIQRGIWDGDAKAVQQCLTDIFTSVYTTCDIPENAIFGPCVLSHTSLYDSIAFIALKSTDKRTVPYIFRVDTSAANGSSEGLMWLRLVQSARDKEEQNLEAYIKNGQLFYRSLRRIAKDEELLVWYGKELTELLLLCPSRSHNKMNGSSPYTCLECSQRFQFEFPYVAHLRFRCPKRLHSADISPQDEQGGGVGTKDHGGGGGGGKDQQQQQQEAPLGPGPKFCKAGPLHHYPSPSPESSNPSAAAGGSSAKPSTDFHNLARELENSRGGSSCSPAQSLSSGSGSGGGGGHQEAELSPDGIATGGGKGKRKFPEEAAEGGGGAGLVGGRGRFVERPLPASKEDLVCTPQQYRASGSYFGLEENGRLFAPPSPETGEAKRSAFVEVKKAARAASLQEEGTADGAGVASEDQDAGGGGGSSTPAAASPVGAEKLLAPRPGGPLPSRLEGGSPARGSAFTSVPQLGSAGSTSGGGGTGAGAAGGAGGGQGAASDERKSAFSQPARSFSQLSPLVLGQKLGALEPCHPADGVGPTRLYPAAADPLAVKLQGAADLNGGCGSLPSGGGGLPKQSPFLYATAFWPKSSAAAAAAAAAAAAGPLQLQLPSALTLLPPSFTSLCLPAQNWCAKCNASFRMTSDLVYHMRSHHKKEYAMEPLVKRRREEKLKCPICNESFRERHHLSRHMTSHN
compound,measurement,setting,value
COc1cc(OC)cc(-c2noc(N3CCN(C)C4(CCN(c5ccnc(C)c5)CC4)C3)n2)c1 [MRK-740],"∆ Tm (°C), DSF",PRDM8,1.4 °C
same,"∆ Tm (°C), DSF",PRDM11,-0.536 °C
same,"∆ Tm (°C), DSF",PRDM13,-1.0 °C
same,"∆ Tm (°C), DSF",PRDM10,-0.4 °C
same,"∆ Tm (°C), DSF",PRDM2,-1.1 °C
same,"∆ Tm (°C), DSF",PRDM6,-0.633 °C
same,"∆ Tm (°C), DSF",PRDM12,-0.9 °C
same,"∆ Tm (°C), DSF",PRDM14,-2.3 °C
same,Panel of 108 enzymes and receptors: targets with significant (>50% at 10 µM) binding,[1],"binding only to Adrenergic α2B, Histamine H3, Muscarinic M2 and Opiate µ receptors"
same,Binding,Histamine H3,> 50%
same,"∆Tm, Average (n=3)",PRDM9; [2],-0.02041 ⁰C
same,"∆Tm, replicates",PRDM9; [2],0.1071 ⁰C and -0.1796 ⁰C and 0.01126 ⁰C
same,"∆Tm, Average (n=3)",PRDM9; [3],0.008307 ⁰C
same,"∆Tm, replicates",PRDM9; [3],0.03434 ⁰C and -0.02437 ⁰C and 0.01495 ⁰C
same,"∆Tm, Average (n=3)",PRDM9; [4],0.01061 ⁰C
same,"∆Tm, replicates",PRDM9; [4],0.0928 ⁰C and -0.07107 ⁰C and 0.01011 ⁰C
same,"∆Tm, Average (n=3)",PRDM9; [5],0.1496 ⁰C
same,"∆Tm, replicates",PRDM9; [5],0.1732 ⁰C and 0.04052 ⁰C and 0.2352 ⁰C
same,"∆Tm, Average (n=3)",PRDM9; [6],0.04508 ⁰C
same,"∆Tm, replicates",PRDM9; [6],0.1528 ⁰C and -0.2157 ⁰C and 0.1982 ⁰C
same,"∆Tm, Average (n=3)",PRDM9; [7],0.2255 ⁰C
same,"∆Tm, replicates",PRDM9; [7],0.2233 ⁰C and 0.03455 ⁰C and 0.4187 ⁰C
same,"∆Tm, Average (n=3)",PRDM9; [8],-0.08242 ⁰C
same,"∆Tm, replicates",PRDM9; [8],-0.00371 ⁰C and -0.4167 ⁰C and 0.1731 ⁰C
same,"∆Tm, Average (n=3)",PRDM9; [9],0.4191 ⁰C
same,"∆Tm, replicates",PRDM9; [9],0.4623 ⁰C and 0.3242 ⁰C and 0.4707 ⁰C
same,"∆Tm, Average (n=3)",PRDM9; [10],-0.01426 ⁰C
same,"∆Tm, replicates",PRDM9; [10],0.02232 ⁰C and -0.1544 ⁰C and 0.08926 ⁰C
same,"∆Tm, Average (n=3)",PRDM9; [11],0.7764 ⁰C
same,"∆Tm, replicates",PRDM9; [11],0.7056 ⁰C and 0.7972 ⁰C and 0.8264 ⁰C
same,"∆Tm, Average (n=3)",PRDM9; [12],0.1037 ⁰C
same,"∆Tm, replicates",PRDM9; [12],0.226 ⁰C and -0.09012 ⁰C and 0.1752 ⁰C
same,"∆Tm, Average (n=3)",PRDM9; [13],1.337 ⁰C
same,"∆Tm, replicates",PRDM9; [13],1.344 ⁰C and 1.221 ⁰C and 1.444 ⁰C
same,"∆Tm, Average (n=3)",PRDM9; [14],-0.1063 ⁰C
same,"∆Tm, replicates",PRDM9; [14],-0.01797 ⁰C and -0.3914 ⁰C and 0.09041 ⁰C
same,"∆Tm, Average (n=3)",PRDM9; [15],1.956 ⁰C
same,"∆Tm, replicates",PRDM9; [15],2.017 ⁰C and 1.819 ⁰C and 2.032 ⁰C
same,"∆Tm, Average (n=3)",PRDM9; [16],0.1387 ⁰C
same,"∆Tm, replicates",PRDM9; [16],0.3126 ⁰C and 0.00612 ⁰C and 0.09739 ⁰C
same,"∆Tm, Average (n=3)",PRDM9; [17],2.652 ⁰C
same,"∆Tm, replicates",PRDM9; [17],2.731 ⁰C and 2.527 ⁰C and 2.698 ⁰C
